# Data from publication PMC8327158, “PEGylated AdipoRon derivatives improve glucose and lipid metabolism under insulinopenic and high-fat diet conditions” (Journal of Lipid Research, 2021).
# Columns and labels:
# ceramidase = experiment: Ceramidase activity assay in lysate of treated INS1 cells; format: cell-based, rat; settings: INS1 cells treated 20 μM 24 h
# Experimental: INS1 cells were cultured in 10 cm dish and treated with AdipoRon or AdipoRonPEG5 (20 μM) for 24 h. Remove the media and collect cells using a cell scraper and transfer cells to a 1.5 ml tube. Centrifuge to spin down the cells before freezing in liquid nitrogen. Cell pellets were stored at –80°C till analysis. During analysis, INS1 cell pellets on dry ice were mixed with 500 μl of Dulbecco PBS with Ca^2+ and Mg^2+. The sample was then immediately placed on ice and lysed with a tissue disruptor probe (Fisher Scientific, Model FB50, Waltham MA) by performing five short disruption cycles at a power of 30% (3 s each cycle). Briefly perform a gentle vortexing of the vial. Take an aliquot of 50 μl of sample for protein determination (Pierce™ BCA Protein Assay Kit, Thermo Fisher Scientific). In total, 400 μl of lysate was transferred to a culture borosilicate glass tube containing 1.6 ml of Dulbecco PBS with Ca^2+ and Mg^2+ on ice. […] All the samples and serial dilutions were analyzed by injecting 1 μl in the LC-MS/MS system: Shimadzu LCMS-8060 triple-quadrupole mass spectrometer coupled to a Nexera X2 UHPLC chromatograph (Shimadzu Scientific Instruments, Columbia, MD) operating the dual ion source (DUIS) in electrospray positive ionization mode. […]
# [1] = system: AMPK and ACC phosphorylation; experiment: Western blot of AMPK and ACC phosphorylation in liver and subcutaneous adipose tissue; format: in vivo, mouse
# Experimental: Protein was extracted from the adipose tissue by homogenization in PBS supplemented with 1 mM EDTA, 20 mM NaF, 2 mM Na3VO4, and protease inhibitor cocktail. 5× RIPA buffer was added to the homogenate for a final concentration of 10 mM Tris-HCl, 2 mM EDTA, 0.3% NP40, 0.3% deoxycholate, 0.1% SDS, and 140 mM NaCl, pH 7.4. The sample was centrifuged at 10,000 g for 5 min. In total, 20–50 μg/lane of supernatant protein was separated by SDS-PAGE (NP0335BOX, Thermo Fisher) and transferred to nitrocellulose membrane. The blots were then incubated overnight at 4°C with primary antibodies (1:1,000) in a 1% BSA TBST-blocking solution. Primary antibodies are listed in supplemental Table S3. Primary antibodies were detected using secondary antibodies labeled with infrared dyes emitting at 700 nm or 800 nm (1:5,000, Li-Cor Bioscience 925-68073 and 926-32213, respectively) The Odyssey Infrared Imager was used to visualized western blots with Li-Cor IRdye secondary antibodies.
Compound,ceramidase activity / labeled ceramide levels in cell lysate (ceramidase),ACC phosphorylation in the subcutaneous adipose tissue ([1]; single treatment),AMPK pathway in the liver ([1]; single treatment),"p-AMPK levels in the liver, AdipoRon versus AdipoRonPEG5 ([1]; HFD-induced obese mice)"
O=C(COc1ccc(C(=O)c2ccccc2)cc1)NC1CCN(Cc2ccc(OCCOCCOCCOCCOCCO)cc2)CC1 [AdipoRonPEG5],reduced levels of labeled ceramides,enhanced,activated,
O=C(COc1ccc(C(=O)c2ccccc2)cc1)NC1CCN(Cc2ccccc2)CC1 [AdipoRon],remained essentially the same as untreated control,,,higher
